Measured values published in ChEMBL document CHEMBL1201862, “PubChem BioAssay data set” (2004).
Activity calls are given as the source filed them.

Experiments:
fMet-Leu-Phe receptor = fMet-Leu-Phe receptor (Homo sapiens, UniProt P21462); assay: FPR ligands, dose response (AID 519); assay type: functional
[1] = HepG2 cell cytotoxicity, dose response, cytotoxicity control, ATP luminescence, cherry-pick, activator set 2 (AID 1053143); assay type: functional, cell-based
[2] = THP-1 cell cytotoxicity, dose response, cytotoxicity control for non-replicating M. tuberculosis project (AID 489025); assay type: functional
[3] = HepG2 cell cytotoxicity, dose response, cytotoxicity control for non-replicating M. tuberculosis project (AID 489018); assay type: functional; conditions: Mycobacterium tuberculosis
[4] = Vero E6 cell cytotoxicity, dose response, cytotoxicity control for non-replicating M. tuberculosis project, secondary assay (AID 492998); assay type: functional, VeroE6; conditions: Vero C1008
[5] = inhibitors of HIV Env-driven cell fusion, dose response, cherry-pick (AID 652057); assay type: functional, cell-based
[6] = ZM109 Env clade C HIV-1 fusion inhibitors, dose response, HeLa effector, CEM target cells, luciferase, cherry-pick (AID 652058); assay type: functional, cell-based
Albumin = Albumin (Bos taurus, UniProt P02769); assay: Counterscreen for inhibitors of T-cell receptor (TCR)-CD3 interaction: Fluorescence-based biochemical high throughput dose response assay to identify inhibitors of T-cell receptor (TCR)-CD3 interaction using a TAMRA-labeled BSA probe.; assay type: functional
Sequence of Albumin (P02769 whole entry, the tested form may be a part): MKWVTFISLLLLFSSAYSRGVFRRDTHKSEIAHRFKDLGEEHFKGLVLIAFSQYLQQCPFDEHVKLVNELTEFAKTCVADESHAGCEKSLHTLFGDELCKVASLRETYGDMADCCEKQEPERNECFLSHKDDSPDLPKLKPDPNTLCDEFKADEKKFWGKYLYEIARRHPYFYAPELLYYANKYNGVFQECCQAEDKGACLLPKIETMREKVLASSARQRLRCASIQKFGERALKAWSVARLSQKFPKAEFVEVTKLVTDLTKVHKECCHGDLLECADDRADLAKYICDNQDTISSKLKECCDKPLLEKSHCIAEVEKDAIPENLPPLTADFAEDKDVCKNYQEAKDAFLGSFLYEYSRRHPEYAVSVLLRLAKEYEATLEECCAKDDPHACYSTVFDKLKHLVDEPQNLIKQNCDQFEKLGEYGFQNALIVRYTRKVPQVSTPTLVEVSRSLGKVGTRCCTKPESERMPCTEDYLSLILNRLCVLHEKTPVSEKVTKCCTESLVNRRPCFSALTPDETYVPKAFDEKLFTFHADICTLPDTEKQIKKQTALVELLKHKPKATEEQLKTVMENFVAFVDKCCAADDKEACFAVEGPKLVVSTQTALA

[7] = off-target signal loss in HeLa-CEM21 co-culture – HeLa F-luc CTL cells, cherry-picked, counter-screen for HIV-1 Env fusion inhibitor project, dose response (AID 652040); assay type: functional, cell-based;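 further: potency for signal decrease marking cytotoxic or nonspecific inhibition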
[8] = inhibitors of clade B AD8 Env fusion, dose response, cell-based, cherry-pick (AID 652062); assay type: functional;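 further: luciferase signal from cell-cell fusion driven by HIV-1 clade B AD8 Env; potency is for inhibitors of fusion seen as a drop in luminescence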
[9] = target: T1, Heat shock factor protein 1 (Mus musculus, UniProt P38532); assay: HSF1 potentiators in luciferase reporter cells, confirmation, cell-based, NIH3T3, luminescence, dose retest (AID 435004); assay type: functional;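 further: stress induced by proteasome inhibitor MG132 added 30 min after compound; luciferase reporter driven by HSF1 response element in NIH3T3 cells; actives raise luminescence as potentiators of the MG132 stress response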
T1 sequence (P38532 whole entry): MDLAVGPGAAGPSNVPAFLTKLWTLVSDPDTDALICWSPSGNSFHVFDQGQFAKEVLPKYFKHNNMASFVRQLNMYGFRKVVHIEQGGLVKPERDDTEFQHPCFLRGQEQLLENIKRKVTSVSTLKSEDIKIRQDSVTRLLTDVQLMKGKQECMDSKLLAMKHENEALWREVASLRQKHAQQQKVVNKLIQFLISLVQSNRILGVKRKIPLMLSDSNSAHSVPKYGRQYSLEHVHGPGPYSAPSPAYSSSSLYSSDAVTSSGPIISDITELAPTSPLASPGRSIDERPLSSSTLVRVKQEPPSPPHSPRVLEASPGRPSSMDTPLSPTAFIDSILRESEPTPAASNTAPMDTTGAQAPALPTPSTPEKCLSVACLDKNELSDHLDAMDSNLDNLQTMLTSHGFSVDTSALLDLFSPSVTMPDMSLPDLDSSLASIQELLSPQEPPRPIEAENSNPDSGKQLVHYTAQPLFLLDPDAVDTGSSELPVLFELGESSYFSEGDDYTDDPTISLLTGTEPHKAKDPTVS

Vero [10] = assay: cells; assay type: functional, cell-based; conditions: Chlorocebus sabaeus
Vero [11] = assay: cells; assay type: functional; conditions: Chlorocebus sabaeus
Large T antigen = Large T antigen (Simian virus 40, UniProt P03070); assay type: functional, Betapolyomavirus macacae;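 further: Confirmatory-stage PubChem screen for compounds that inhibit SV40 T antigen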
Sequence of Large T antigen (P03070 whole entry): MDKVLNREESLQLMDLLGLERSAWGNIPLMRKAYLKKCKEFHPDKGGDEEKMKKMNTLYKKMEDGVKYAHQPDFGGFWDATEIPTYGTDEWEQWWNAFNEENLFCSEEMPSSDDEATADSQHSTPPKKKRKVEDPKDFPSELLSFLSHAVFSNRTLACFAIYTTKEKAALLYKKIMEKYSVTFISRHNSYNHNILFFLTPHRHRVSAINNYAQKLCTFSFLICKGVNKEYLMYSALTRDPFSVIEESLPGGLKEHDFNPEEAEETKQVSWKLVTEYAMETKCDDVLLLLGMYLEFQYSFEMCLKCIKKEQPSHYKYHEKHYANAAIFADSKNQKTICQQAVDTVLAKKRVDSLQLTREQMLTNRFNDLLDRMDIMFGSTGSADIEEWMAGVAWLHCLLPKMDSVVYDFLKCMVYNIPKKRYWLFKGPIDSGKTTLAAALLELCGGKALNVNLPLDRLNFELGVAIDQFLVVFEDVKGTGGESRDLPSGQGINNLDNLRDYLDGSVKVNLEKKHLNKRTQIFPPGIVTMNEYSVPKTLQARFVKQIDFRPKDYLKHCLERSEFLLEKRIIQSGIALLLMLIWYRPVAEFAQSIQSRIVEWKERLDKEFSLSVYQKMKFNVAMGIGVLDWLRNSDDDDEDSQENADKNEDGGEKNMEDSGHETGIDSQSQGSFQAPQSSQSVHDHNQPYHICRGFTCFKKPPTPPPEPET

[12] = human group III sPLA2 inhibitors, dose response, biochemical, QFRET, IC50 (AID 743457);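 further: green fluorescence rise as the enzyme cleaves BODIPY PC-A2 in liposomes; potency for inhibition of the enzyme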
cells [13] = assay type: functional, cell-based
[14] = target: T2, Trace amine-associated receptor 1 (Homo sapiens, UniProt Q96RJ0); assay: Fluorescence-based cell-based high throughput dose response assay to identify agonists of the human trace amine associated receptor 1 (TAAR1).; assay type: functional
T2 sequence (Q96RJ0 whole entry): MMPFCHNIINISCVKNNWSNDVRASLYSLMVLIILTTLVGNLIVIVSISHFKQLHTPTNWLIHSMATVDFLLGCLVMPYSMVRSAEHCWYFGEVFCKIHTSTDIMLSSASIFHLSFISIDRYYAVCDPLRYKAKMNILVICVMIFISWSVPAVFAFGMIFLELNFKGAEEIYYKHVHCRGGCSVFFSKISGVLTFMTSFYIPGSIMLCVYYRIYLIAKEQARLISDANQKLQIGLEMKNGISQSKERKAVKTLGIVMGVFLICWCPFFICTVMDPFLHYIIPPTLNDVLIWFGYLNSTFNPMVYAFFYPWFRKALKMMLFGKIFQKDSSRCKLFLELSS

[15] = target: T2, Trace amine-associated receptor 1; assay: Counterscreen for agonists of the human trace amine associated receptor 1 (hTAAR1): Fluorescence-based cell-based high throughput dose response assay to identify hTAAR1 agonist that also desensitize TAAR1 receptor response.; assay type: functional
cells [16] = assay type: functional, cell-based; remark: listed apart in the source
Protein skinhead-1 = target: T3, Protein skinhead-1 (Caenorhabditis elegans, UniProt P34707); assay type: functional
T3 sequence (P34707 whole entry): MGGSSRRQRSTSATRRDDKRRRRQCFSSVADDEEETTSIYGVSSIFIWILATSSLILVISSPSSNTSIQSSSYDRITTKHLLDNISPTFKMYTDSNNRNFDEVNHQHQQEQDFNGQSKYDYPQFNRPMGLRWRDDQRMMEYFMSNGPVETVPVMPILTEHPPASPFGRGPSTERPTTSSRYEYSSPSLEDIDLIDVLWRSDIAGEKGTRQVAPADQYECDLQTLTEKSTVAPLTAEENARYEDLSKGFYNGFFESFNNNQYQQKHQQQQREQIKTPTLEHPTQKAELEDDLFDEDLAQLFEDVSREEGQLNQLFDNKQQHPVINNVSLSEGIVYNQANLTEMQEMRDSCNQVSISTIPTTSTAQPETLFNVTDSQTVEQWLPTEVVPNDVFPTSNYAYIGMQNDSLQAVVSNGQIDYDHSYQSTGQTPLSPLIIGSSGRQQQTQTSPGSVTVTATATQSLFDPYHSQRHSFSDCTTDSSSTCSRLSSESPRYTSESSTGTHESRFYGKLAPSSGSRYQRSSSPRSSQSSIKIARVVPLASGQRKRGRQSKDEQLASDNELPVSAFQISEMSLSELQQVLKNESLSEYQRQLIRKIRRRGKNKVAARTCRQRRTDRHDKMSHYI

[17] = target: DNA repair protein RAD52 homolog (Homo sapiens, UniProt P43351); assay type: functional, biochemical
Sequence of DNA repair protein RAD52 homolog (P43351 whole entry): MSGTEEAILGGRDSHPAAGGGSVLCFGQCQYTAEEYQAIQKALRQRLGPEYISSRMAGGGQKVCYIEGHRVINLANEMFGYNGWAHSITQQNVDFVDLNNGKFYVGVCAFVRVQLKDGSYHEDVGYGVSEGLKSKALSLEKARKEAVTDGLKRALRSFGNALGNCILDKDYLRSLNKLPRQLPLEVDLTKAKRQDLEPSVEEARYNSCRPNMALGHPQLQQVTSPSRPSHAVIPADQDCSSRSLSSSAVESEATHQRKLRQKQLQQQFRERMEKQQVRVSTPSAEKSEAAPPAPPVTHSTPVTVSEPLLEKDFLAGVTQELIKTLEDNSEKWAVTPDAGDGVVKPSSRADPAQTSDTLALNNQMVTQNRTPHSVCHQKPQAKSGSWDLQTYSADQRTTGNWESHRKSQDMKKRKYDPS

[18] = target: T4, Histone-lysine N-methyltransferase NSD2 (Homo sapiens, UniProt O96028); assay type: biochemical
T4 sequence (O96028 whole entry): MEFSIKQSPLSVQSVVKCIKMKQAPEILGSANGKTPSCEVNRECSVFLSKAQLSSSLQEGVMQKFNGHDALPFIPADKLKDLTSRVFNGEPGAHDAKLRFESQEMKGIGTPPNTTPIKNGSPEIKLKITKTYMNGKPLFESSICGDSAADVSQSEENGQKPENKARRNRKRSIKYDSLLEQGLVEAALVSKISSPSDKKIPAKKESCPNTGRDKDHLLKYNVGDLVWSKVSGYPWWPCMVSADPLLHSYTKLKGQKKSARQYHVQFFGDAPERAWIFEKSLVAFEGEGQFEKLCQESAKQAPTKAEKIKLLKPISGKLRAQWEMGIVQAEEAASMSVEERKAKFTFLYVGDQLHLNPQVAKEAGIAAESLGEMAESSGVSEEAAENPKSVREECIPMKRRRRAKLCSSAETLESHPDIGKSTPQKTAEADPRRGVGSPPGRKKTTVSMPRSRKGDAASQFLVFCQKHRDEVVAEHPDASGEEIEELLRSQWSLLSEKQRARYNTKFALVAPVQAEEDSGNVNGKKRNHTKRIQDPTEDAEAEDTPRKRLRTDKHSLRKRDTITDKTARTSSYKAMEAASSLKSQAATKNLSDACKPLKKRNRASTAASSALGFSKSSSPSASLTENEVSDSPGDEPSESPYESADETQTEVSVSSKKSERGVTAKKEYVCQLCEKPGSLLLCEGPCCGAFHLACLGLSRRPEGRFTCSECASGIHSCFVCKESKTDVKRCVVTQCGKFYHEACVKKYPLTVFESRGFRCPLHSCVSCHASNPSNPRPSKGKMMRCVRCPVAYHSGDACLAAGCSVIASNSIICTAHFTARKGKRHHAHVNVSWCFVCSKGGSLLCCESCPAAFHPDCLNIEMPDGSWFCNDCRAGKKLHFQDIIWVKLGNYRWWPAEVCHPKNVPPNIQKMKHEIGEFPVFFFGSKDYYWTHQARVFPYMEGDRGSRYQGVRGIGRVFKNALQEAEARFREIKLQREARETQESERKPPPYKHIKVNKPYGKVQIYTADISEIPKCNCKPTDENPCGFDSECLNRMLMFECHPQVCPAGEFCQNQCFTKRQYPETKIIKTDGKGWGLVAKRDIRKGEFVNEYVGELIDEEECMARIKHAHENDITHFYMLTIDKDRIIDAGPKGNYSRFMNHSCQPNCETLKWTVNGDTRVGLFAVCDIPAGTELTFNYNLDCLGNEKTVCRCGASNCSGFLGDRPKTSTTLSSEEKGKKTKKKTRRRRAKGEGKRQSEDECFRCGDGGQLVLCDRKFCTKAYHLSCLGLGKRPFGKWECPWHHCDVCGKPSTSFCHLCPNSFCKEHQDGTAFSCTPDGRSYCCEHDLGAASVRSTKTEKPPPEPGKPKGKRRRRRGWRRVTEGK

[19] = target: Fructose-bisphosphate aldolase (Mycobacterium tuberculosis, UniProt P9WQA3); assay: Fluorescence-based biochemical high throughput dose response assay for inhibitors of the fructose-bisphosphate aldolase (FBA) of M. tuberculosis.; assay type: functional
Sequence of Fructose-bisphosphate aldolase (P9WQA3 whole entry): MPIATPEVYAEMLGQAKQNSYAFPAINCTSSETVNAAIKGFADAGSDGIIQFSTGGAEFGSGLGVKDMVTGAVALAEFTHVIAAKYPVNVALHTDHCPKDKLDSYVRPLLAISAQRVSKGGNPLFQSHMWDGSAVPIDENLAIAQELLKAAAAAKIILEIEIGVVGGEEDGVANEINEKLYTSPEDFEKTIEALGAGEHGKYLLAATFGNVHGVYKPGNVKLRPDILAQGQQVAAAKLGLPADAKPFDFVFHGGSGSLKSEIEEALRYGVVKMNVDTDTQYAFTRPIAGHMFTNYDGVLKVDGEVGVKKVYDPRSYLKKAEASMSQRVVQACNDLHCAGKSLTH

Paired box protein Pax-8 = Paired box protein Pax-8 (Homo sapiens, UniProt Q06710); assay: inhibitors of PAX8-driven TPO luciferase reporter, dose response, RMG-I cells, cherry-pick (AID 687027); assay type: functional, cell-based;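 further: luciferase reporter driven by Pax8 target thyroperoxidase promoter measured by SteadyGlo luminescence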
Sequence of Paired box protein Pax-8 (Q06710 whole entry): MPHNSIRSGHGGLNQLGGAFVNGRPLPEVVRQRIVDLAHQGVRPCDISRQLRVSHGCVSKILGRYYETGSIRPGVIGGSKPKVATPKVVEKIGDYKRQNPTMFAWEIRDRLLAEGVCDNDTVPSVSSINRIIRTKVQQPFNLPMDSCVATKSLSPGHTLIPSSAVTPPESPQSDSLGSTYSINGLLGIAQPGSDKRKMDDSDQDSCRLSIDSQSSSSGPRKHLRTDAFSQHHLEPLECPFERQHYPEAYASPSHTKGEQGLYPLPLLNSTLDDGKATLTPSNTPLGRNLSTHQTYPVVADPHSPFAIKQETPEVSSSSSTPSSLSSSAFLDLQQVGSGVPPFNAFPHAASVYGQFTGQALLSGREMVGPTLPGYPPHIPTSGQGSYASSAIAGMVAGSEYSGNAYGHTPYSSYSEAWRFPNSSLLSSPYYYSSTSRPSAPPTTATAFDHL

[20] = NIH:OVCAR-3 ovarian cancer cell cytotoxicity, dose response, PAX8 inhibitor project, plate reader, dry powder samples (AID 743044); assay type: functional, cell-based
[21] = IGROV1 ovarian cancer cell cytotoxicity, dose response, PAX8 inhibitor project, plate reader, dry powder samples (AID 743043); assay type: functional, cell-based; conditions: IGROV-1
[22] = cytotoxicity in OVCAR8 ovarian cancer cells, dose response, PAX8 project, cell-based, plate reader, dry powder samples (AID 743197); assay type: functional; conditions: OVCAR-8
[23] = Late stage assay provider results from the probe development effort to identify selective inhibitors of heat shock protein 90 (HSP90): Absorbance-based cell proliferation assay in SKBR3 cells.; assay type: functional; conditions: SK-BR-3
[24] = Late stage assay provider results from the probe development effort to identify selective inhibitors of heat shock protein 90 (HSP90): Absorbance-based cell proliferation assay in MCF7 cells.; assay type: functional

Sequence of fMet-Leu-Phe receptor (P21462 whole entry): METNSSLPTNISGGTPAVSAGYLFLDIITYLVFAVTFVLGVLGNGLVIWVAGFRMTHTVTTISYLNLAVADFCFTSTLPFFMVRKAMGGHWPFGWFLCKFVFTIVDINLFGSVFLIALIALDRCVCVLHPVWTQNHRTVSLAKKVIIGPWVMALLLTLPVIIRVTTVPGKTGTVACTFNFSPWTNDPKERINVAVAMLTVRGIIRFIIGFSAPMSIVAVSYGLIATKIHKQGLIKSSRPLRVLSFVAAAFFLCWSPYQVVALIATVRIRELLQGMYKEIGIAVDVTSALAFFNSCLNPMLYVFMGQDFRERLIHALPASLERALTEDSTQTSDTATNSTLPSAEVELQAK

## CCc1cc2c(=O)c(-c3nc4ccccc4n3C)c(COCC(=O)O)oc2cc1OC(=O)C(C)(C)C
fMet-Leu-Phe receptor
  Ki: > 66.7 µM (inactive)

## COc1ccc(Nc2ccnc(Nc3ccc(OC)cc3)n2)cc1
[1]
  AC50: 26 µM (active)

## CC1=NN(C(=O)c2ccccc2)C(O)(c2ccc(Br)cc2)C1 (centres undefined)
[2]
  CC50: 22.8 µM (active)
[3]
  CC50: > 20 µM (active)
[4]
  CC50: > 20 µM (active)
[5]
  AC50: 9.38 µM (active)
[6]
  AC50: 8 µM (active)
Albumin
  IC50: > 94.2 µM (inactive)
[7]
  AC50: 21.6 µM (active)
[8]
  AC50: 42.2 µM (active)

## CCOc1ccc(C(=O)CCC(=O)NNC(=O)c2ccccc2O)cc1
Albumin
  IC50: > 94.1 µM (inactive)

## O=C(Nc1ccc(Cl)cn1)c1ccc([N+](=O)[O-])o1
[9]
  EC50: 20.8 µM (active)
Vero [10]
  IC50: > 25 µM (active)
Vero [11]
  CC50: 16.9 µM (active)
[1]
  AC50: 26 µM (active)

## CNc1nn(-c2cccc(Cl)c2)nc1N
Large T antigen
  IC50: 29.9 µM (active)
[12]
  IC50: > 122 µM (inactive)
fMet-Leu-Phe receptor
  Ki: > 66.7 µM (inactive)

## Cc1cc(C(=O)CN2C(=O)C(=O)N(C3CCCC3)C2=O)c(C)n1CCc1ccc(F)cc1
Cells [13]
  IC50: > 29.9 µM (inactive)
[14]
  EC50: 2.96 µM (active)
[15]
  IC50: 5.57 µM (active)
Cells [16]
  EC50: > 29.9 µM (inactive)

## Cc1c(C)n(Cc2ccccc2)c2ccc(C(=O)OCCN(C)C)cc12
Protein skinhead-1
  IC50: 58.2 µM (inactive)
[17]
  AC50: 14 µM (active)
[18]
  AC50: > 20 µM (inactive)

## CCc1c(C)nc2c(-c3ccccc3)cnn2c1O
[19]
  IC50: 3.39 µM (active)
[12]
  IC50: > 122 µM (inactive)

## COc1ccccc1S(=O)(=O)N(C)C[C@H]1Oc2cc(C#CCC3CCCC3)ccc2S(=O)(=O)N([C@H](C)CO)C[C@H]1C
Paired box protein Pax-8
  AC50: 4.83 µM (active)
[20]
  AC50: 35.5 µM (active)
[21]
  AC50: 55.4 µM (active)
[22]
  AC50: 64 µM (active)

## CC(C)[C@H](NC(=O)C1CC1)C(=O)N1CCC[C@H]1C(=O)NCCc1ccccc1Cl
Cells [13]
  IC50: > 29.9 µM (inactive)
[14]
  EC50: 3.03 µM (active)
[15]
  IC50: 3.18 µM (active)
Cells [16]
  EC50: > 29.9 µM (inactive)

## N#Cc1cc2ccc(OCc3cccc(C(=O)O)c3)cc2oc1=O
[23]
  IC50: > 100 µM (inactive)
[24]
  IC50: > 100 µM (inactive)

## COC(=O)c1cccc(COc2ccc3cc(C#N)c(=O)oc3c2)c1
[23]
  IC50: > 100 µM (inactive)
[24]
  IC50: > 100 µM (inactive)
